We go through one compound from patent publication US9050312B2, “Strontium compound for treatment of sub-dermal soft tissue pain” (SANTOSOLVE AS, priority 2001, dated 2015).

The assay deals with severe pain in the neck and shoulders. Kind of assay: Clinical testing: severe pain in the neck and shoulders after a car accident. It counts as in vivo, human. The following applies: person; had not slept continuously any night since the accident. The text has this: A person was involved in a car accident seven years earlier and had developed severe pain in the neck and shoulders. The patient had used non-steroidal anti-inflammatory drugs for a long time without significant effect. They had not slept continuously any night since the accident.
The patient tried the composition of Example 19 by administering topically to the areas of pain. They claimed a pain relieving effect after one minute and had no or very little pain for the following 2 to 3 days. After administration of the composition of Example 13 they were able to sleep for about 10 hours each of the next two nights.

Consider `CNCC(O)C(O)C(O)C(O)CO.CNCC(O)C(O)C(O)C(O)CO.O=C([O-])CN(CCN(CC(=O)O)CC(=O)O)CC(=O)[O-].[Sr+2]` [Example 13, SrEDTA Dimeglumine Salt], for which the “sleep each of the next two nights” value was “about 10 hours”.
